Reference: patent publication US20200093751A1, “CHEMOPROTECTIVE/CHEMOACTIVE NANODROPLETS AND METHODS OF USE THEREOF” (priority 2016, published 2020)

Legend:
[1] = Toxicity / chemoprotective effect (body weight) in NCI-H460 tumor-bearing nude mice; assay type: in vivo
Description: When tumor volume reached approximately 50 mm^3, groups of tumor-bearing mice (n=5) were injected through the tail vein twice per week for a total of three weeks with a dose of 30 mg/kg per animal.
When tumor volume reached approximately 50 mm^3, groups of tumor-bearing mice (n=5) were injected through the tail vein twice per week for a total of three weeks with a dose of 30 mg/kg per animal of Tonp or once per week with a dose of 15 mg/kg per animal of TAXOTERE®.
The Tonp was injected one day before TAXOTERE® starting just before the second injection of TAXOTERE®.
Toxicity of the nanodroplet formulations was further assessed with respect to groups of mice with tumors. NCI-H460 human lung cancer cells were injected subcutaneously on the backs of nude mice to establish a tumor model. When tumor volume reached approximately 50 mm^3, mice were divided into treatment groups, which typically consisted of five mice. Mice were injected through the tail vein twice per week for three weeks with 30 mg/kg of Tonp or once per week with a dose of 15 mg/kg of TAXOTERE®.
One group of tumor-bearing mice was injected with TAXOTERE® through the tail vein once per week at a dose of 15 mg/kg per animal. […] Tonp, when used, was injected one day before TAXOTERE® starting just before the second injection of TAXOTERE®.

[2] = system: NCI-H460 human lung cancer model; experiment: Tumor growth inhibition in NCI-H460 human lung cancer model in nude mice; assay type: in vivo; settings: TAXOTERE 15 mg/kg tail vein once per week, two injections; treatment ended on 13th day
Description: NCI-H460 cell suspensions were injected subcutaneously on the backs of mice to establish a tumor model. When tumor volume reached approximately 50 mm^3, groups of tumor-bearing mice (n=5) were injected through the tail vein once per week for a total of two weeks with a dose of 15 mg/kg per animal for TAXOTERE® or 30 mg/kg per animal twice per week for three weeks for Tonp nanodroplets. On the 20th day, the tumor growth inhibition of d-T3 (Tonp) treatment was 70%.
NCI-H460 cell suspensions were injected subcutaneously on the backs of mice to establish the tumor model. […] The Tonp was injected one day before TAXOTERE® starting just before the second injection of TAXOTERE®.
NCI-H460 human lung cancer cells were injected subcutaneously on the backs of nude mice to establish a tumor model. When tumor volume reached approximately 50 mm^3, mice were divided into treatment groups, which typically consisted of five mice.
In one experiment, tumor-bearing mice were either left untreated, were treated with TAXOTERE®, or were treated with Tonp nanodroplets. Mice were injected through the trail vein once per week with 15 mg/kg of TAXOTERE® or twice per week for three weeks with a dose of 30 mg/kg of Tonp.
One group of tumor-bearing mice was injected with TAXOTERE® through the tail vein once per week at a dose of 15 mg/kg per animal. […]

With `CC(=O)O[C@@]12CO[C@@H]1C[C@H](O)[C@@]1(C)C(=O)[C@H](O)C3=C(C)[C@@H](OC(=O)[C@H](O)[C@@H](NC(=O)OC(C)(C)C)c4ccccc4)C[C@@](O)([C@@H](OC(=O)c4ccccc4)[C@H]21)C3(C)C` [TAXOTERE®, docetaxel] the “body weight after about two weeks of treatment” value ([1]; TAXOTERE 15 mg/kg once per week) was “significantly decreased in body weight”, the “body weight after two injections of TAXOTERE” value ([1]; TAXOTERE 15 mg/kg once per week without Tonp, treatment ended on 13th day) was “severe body weight drop” and the tumor growth inhibition [2] was 71%.
